Assay results: patent publication US20180179210A1, “Inhibitors of the TEC Kinase Enzyme Family” (Pharmascience Inc., priority 2015, published 2018)

Assays:
[1] = tested on: TMD-8 human activated B cell diffuse large B cell lymphoma cells; experiment: TMD-8 survival assay; format: cell-based; conditions: TMD8, TMD-8 cells, 72 h treatment, Cell Titer-Glo
Experimental: BTK inhibitors affect the survival of B-cell lymphomas. TMD-8 human activated B cell diffuse large B cell lymphoma cells were seeded in 96-well plates at a density of 20,000 cells/well in HyClone RPMI supplemented with 10% FBS (Fisher)/1% Penicillin/Streptomycin (HyClone) and incubated at 37° C., 5% CO2. Cells were treated in triplicate with 1,000 nM or 100 nM curves of compounds for 72 h. Cell survival was measured by Cell Titer-Glo Luminescent Assay (Promega). EC50 values (50% proliferation in the presence of compound as compared to vehicle treated controls) were calculated from dose response compound curves using GraphPad Prism Software.

[2] = tested on: Splenocytes; experiment: Splenic cell proliferation assay (anti-IgM stimulated); format: cell-based; conditions: Splenocyte; CD1 mouse splenocytes, 1 h pre-treatment, 2.5 ug/ml anti-IgM F(ab')2 for 72 h, Cell Titer-Glo; read-out: EC50 (inhibition of splenic cell proliferation)
Experimental: Proliferation of splenocytes in response to anti-IgM can be blocked by inhibition of Btk.
Splenocytes were obtained from 6 week old male CD1 mice (Charles River Laboratories Inc.). Mouse spleens were manually disrupted in PBS and filtered using a 70 um cell strainer followed by ammonium chloride red blood cell lysis. Cells were washed, resuspended in Splenocyte Medium (HyClone RPMI supplemented with 10% heat-inactivated FBS, 0.5× non-essential amino acids, 10 mM HEPES, 50 uM beta mercaptoethanol) and incubated at 37° C., 5% CO2 for 2 h to remove adherent cells. Suspension cells were seeded in 96 well plates at 50,000 cells per well and incubated at 37° C., 5% CO2 for 1 h. Splenocytes were pre-treated in triplicate with 10,000 nM curves of Formula 1 compounds for 1 h, followed by stimulation of cell proliferation with 2.5 ug/ml anti-IgM F(ab′)2 (Jackson ImmunoResearch) for 72 h. Cell proliferation was measured by Cell Titer-Glo Luminescent Assay (Promega). EC50 values (50% proliferation in the presence of compound as compared to vehicle treated controls) were calculated from dose response compound curves using GraphPad Prism Software EC50 values are reported in Table 3: […]

[3] = molecular target: T1, human BTK kinase (hBTK) (Homo sapiens, UniProt Q06187); experiment: BTK kinase inhibition assay (Kinase Profiler radiometric protein kinase assay, Eurofins); format: biochemical; conditions: radiometric [γ-33P-ATP] assay, 40 minutes at room temperature, 250 μM substrate
T1 construct: purchased Eurofins Pharma Discovery Services UK Limited (contract assay, Kinase Profiler)
T1 sequence (Q06187 whole entry): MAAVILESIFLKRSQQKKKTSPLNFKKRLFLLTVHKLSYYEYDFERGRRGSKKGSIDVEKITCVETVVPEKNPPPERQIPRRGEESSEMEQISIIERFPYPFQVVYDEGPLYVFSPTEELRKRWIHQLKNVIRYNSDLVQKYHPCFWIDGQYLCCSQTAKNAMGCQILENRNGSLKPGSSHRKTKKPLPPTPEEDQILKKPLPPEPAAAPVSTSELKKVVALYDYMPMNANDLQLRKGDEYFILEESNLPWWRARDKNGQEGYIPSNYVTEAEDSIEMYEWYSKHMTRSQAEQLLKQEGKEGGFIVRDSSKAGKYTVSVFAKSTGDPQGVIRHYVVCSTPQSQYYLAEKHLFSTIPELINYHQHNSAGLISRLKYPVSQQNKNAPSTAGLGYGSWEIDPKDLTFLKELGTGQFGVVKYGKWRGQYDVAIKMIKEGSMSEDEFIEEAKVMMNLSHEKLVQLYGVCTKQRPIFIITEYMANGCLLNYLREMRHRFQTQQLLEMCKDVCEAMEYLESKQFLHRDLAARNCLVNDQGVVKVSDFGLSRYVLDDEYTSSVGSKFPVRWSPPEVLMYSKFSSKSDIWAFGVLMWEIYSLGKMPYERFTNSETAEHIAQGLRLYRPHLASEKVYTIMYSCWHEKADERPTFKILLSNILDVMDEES
Experimental: In vitro potency of selected compound was defined against human BTK kinase (hBTK) using Kinase Profiler radiometric protein kinase assays performed at Eurofins Pharma Discovery Services UK Limited.
hBTK kinase is diluted in buffer and all compounds were prepared to 50× final assay concentration in 100% DMSO. This working stock of the compound was added to the assay well as the first component in the reaction, followed by the remaining components as detailed in the assay protocol listed above. The reaction was initiated by the addition of the MgATP mix. The kinase reaction was performed at room temperature for 40 minutes in presence of 250 μM substrate, 10 mM MgAcetate, [γ-33P-ATP] (specific activity approx. 500 cpm/pmol, concentration as required) and variable test article concentrations. The ATP concentrations in the assays were with 15 μM of the apparent. The reaction was stopped by the addition of 3% phosphoric acid solution. 10 μL of the reaction is then spotted onto a P30 filtermat and washed three times for 5 minutes in 75 mM phosphoric acid and once in methanol prior to drying and scintillation counting. In addition positive control wells contain all components of the reaction, except the compound of interest; however, DMSO (at a final concentration of 2%) were included in these wells to control for solvent effects as well as blank wells contain all components of the reaction, with a reference inhibitor replacing the compound of interest. This abolishes kinase activity and establishes the base-line (0% kinase activity remaining).

`C=CC(=O)N1CC(Cn2nc(-c3ccc(Oc4cc(F)cc(OCc5cnc(C)nc5)c4)cc3)c3c(N)ncnc32)C1` [Compound 23] gave an EC50 [1] of 13.9 nM, an EC50 [2] of 4.9 nM and an IC50 [3] of 9 nM.
Molecule `CC#CC(=O)N1CCC[C@@H](n2nc(-c3ccc(Oc4cc(F)cc(OCc5cnc(C)nc5)c4)cc3)c3c(N)ncnc32)C1` [Compound 11] has an EC50 [1] of 13.1 nM, an EC50 [2] of 1.5 nM and an IC50 [3] of 10 nM.
With `C=CC(=O)N1CC[C@@H](n2nc(-c3ccc(Oc4cc(F)cc(OCc5cnc(C)nc5)c4)cc3)c3c(N)ncnc32)C1` [Compound 22] the EC50 [1] was 13.4 nM, the EC50 [2] was 2.7 nM and the IC50 [3] was 6 nM.
`CC#CC(=O)N1CCC[C@@H]1Cn1nc(-c2ccc(Oc3cc(F)cc(OCc4cnc(C)nc4)c3)cc2)c2c(N)ncnc21` [Compound 5] gave an EC50 [1] of 48.8 nM, an EC50 [2] of 7.8 nM and an IC50 [3] of 126 nM.
With `Cc1ncc(COc2cc(F)cc(Oc3ccc(-c4nn(C[C@H]5CCCN5C(=O)C5=CCC5)c5ncnc(N)c45)cc3)c2)cn1` [Compound 15] the EC50 [1] was 56.1 nM, the EC50 [2] was 8.7 nM and the IC50 [3] was 53 nM.
`C=C(C)C(=O)N1CCC[C@@H]1Cn1nc(-c2ccc(Oc3cc(F)cc(OCc4cnc(C)nc4)c3)cc2)c2c(N)ncnc21` [Compound 4] was tested, and the EC50 [1] was > 100 nM, the EC50 [2] was > 100 nM and the IC50 [3] was 125 nM.
With `CC#CC(=O)N1CC(Cn2nc(-c3ccc(Oc4cc(F)cc(OCc5cnc(C)nc5)c4)cc3)c3c(N)ncnc32)C1` [Compound 24] the EC50 [1] was 20.6 nM, the EC50 [2] was 10.8 nM and the IC50 [3] was 26 nM.
`C=CC(=O)N[C@H]1CC[C@@H](n2nc(-c3ccc(Oc4cc(F)cc(OCc5cnc(C)nc5)c4)cc3)c3c(N)ncnc32)CC1` [Compound 29] showed an EC50 [1] of 6.6 nM, an EC50 [2] of 1 nM and an IC50 [3] of 8 nM.
`CC#CC(=O)N1CCC(n2nc(-c3ccc(Oc4cc(F)cc(OCc5cnc(C)nc5)c4)cc3)c3c(N)ncnc32)CC1` [Compound 26] gave an EC50 [1] of 18.1 nM, an EC50 [2] of 4.6 nM and an IC50 [3] of 24 nM.
With `C=CC(=O)N1CC2(CC(n3nc(-c4ccc(Oc5cc(F)cc(OCc6cnc(C)nc6)c5)cc4)c4c(N)ncnc43)C2)C1` [Compound 34] the EC50 [2] was 1.5 nM.
With `Cc1ncc(COc2cc(F)cc(Oc3ccc(-c4nn(C[C@H]5CCCN5C(=O)C5=CCCC5)c5ncnc(N)c45)cc3)c2)cn1` [Compound 2] the EC50 [1] was > 100 nM, the EC50 [2] was > 100 nM and the IC50 [3] was 119 nM.
Molecule `C=C(F)C(=O)N1CCC[C@@H](n2nc(-c3ccc(Oc4cc(F)cc(OCc5cnc(C)nc5)c4)cc3)c3c(N)ncnc32)C1` [Compound 20] has an EC50 [1] of 8.6 nM, an EC50 [2] of 2 nM and an IC50 [3] of 6 nM.
With `C#CC(=O)N1CCC[C@@H]1Cn1nc(-c2ccc(Oc3cc(F)cc(OCc4cnc(C)nc4)c3)cc2)c2c(N)ncnc21` [Compound 13] the EC50 [1] was 79.3 nM, the EC50 [2] was 48.7 nM and the IC50 [3] was 35 nM.
With `Cc1ncc(COc2cc(F)cc(Oc3ccc(-c4nn(C[C@H]5CCCN5C#N)c5ncnc(N)c45)cc3)c2)cn1` [Compound 1] the EC50 [1] was 34.7 nM, the EC50 [2] was 12.2 nM and the IC50 [3] was 76 nM.
Molecule `CC#CC(=O)N[C@H]1CC[C@@H](n2nc(-c3ccc(Oc4cc(F)cc(OCc5cnc(C)nc5)c4)cc3)c3c(N)ncnc32)CC1` [Compound 30] has an EC50 [1] of 5.1 nM, an EC50 [2] of 1 nM and an IC50 [3] of 9 nM.
With `C=C(C)C(=O)N1CCC[C@@H](n2nc(-c3ccc(Oc4cc(F)cc(OCc5cnc(C)nc5)c4)cc3)c3c(N)ncnc32)C1` [Compound 7] the EC50 [1] was > 100 nM, the EC50 [2] was 48.7 nM and the IC50 [3] was 16 nM.
Molecule `C=CC(=O)N1CCC[C@@H](n2nc(-c3ccc(Oc4cc(F)cc(OCc5cnc(C)nc5)c4)cc3)c3c(N)ncnc32)C1` [Compound 12] has an EC50 [1] of 16.5 nM, an EC50 [2] of 3.1 nM and an IC50 [3] of 6 nM.
